{"source": "patent US20060204975A1", "about": "“Markers for cyclin dependent kinase inhibitors” (Cyclacel Limited, priority 2003, published 2006)", "key": {"[1]": {"tested_on": "7 kDa biomarker cluster", "assay": "SELDI-TOF-MS plasma proteomic profile, 7 kDa biomarker cluster", "format": "in vivo, human", "conditions": "16 Phase 1b patients, last day of treatment", "method": "(§1) All samples were stored at −80° C. in aliquots.\n(§2) Proteins were then detected with the ProteinChip® Reader."}, "[2]": {"tested_on": "A549 cells", "assay": "Affymetrix microarray gene expression in CYC202 treated A549 cells", "format": "cell-based, human", "conditions": "45 and 75 micromolar", "method": "HT29 and A549 cells, which are derived from human colon and lung tumours respectively, were seeded at approximately 20% confluency, which was equivalent to 1.5×10^6 cells per 10 cm plate in DMEM containing 10% FCS, so that they were actively proliferating upon treatment with the compound the following day.\n[…]. RNA was extracted from the A549 cells used in the microarray experiment using TRIZOL reagent (Invitrogen) according to the manufacturer's instructions. For all other cell lines, total RNA was extracted from the cultures with the RNeasy Midi Kit (Qiagen, Hilden, Germany) according to the manufacturer's instructions. […] RNA was eluted in RNase-free water and quantified using RiboGreen (Molecular Probes, Leiden, The Netherlands). […]\nRNA extracted from A549 cells was used with the Hu Gene FL Cartridge while RNA from HT-29 cells and PBMC was loaded onto Hu Gene U133A Cartridges. […] The biotinylated cRNA was detected with an antibody amplification step using normal goat IgG as blocking reagent, final concentration 0.1 mg/ml (Sigma) and biotinylated anti-streptavidin antibody (goat), final concentration […] (Vector Laboratories). […] The readings from the quantitative scanning were analysed by the Affymetrix Gene Expression Analysis Software. […]\nData from the Affymetrix Chips were analysed at individual time points following CYC202 treatment."}, "[3]": {"biological_target": "CDK 7 (Homo sapiens, UniProt P50613)", "sequence (P50613 whole entry, species assumed)": "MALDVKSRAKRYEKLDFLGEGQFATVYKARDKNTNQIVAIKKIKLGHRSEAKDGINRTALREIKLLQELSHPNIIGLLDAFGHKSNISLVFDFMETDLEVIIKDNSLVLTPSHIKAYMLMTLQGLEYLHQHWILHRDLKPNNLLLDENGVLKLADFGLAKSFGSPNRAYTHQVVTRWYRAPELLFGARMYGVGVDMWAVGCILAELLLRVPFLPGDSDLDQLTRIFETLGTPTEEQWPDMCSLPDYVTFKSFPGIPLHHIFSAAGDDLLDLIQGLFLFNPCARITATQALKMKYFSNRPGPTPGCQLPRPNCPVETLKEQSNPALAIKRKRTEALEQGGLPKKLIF", "sequence (P51946 whole entry partner, species assumed)": "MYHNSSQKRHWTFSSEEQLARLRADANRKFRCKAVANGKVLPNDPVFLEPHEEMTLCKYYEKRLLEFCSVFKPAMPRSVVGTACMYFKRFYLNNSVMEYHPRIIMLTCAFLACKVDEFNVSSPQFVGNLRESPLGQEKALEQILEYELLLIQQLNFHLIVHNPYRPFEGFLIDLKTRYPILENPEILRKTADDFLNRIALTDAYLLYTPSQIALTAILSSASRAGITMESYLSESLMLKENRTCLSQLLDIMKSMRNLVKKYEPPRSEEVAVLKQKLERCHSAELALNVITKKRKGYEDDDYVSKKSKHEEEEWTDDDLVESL", "conditions": "cited from earlier work"}, "[4]": {"tested_on": "cell cycle progression", "conditions": "cited from earlier work"}, "[5]": {"tested_on": "PNUTS", "assay": "QPCR of PNUTS in whole blood (PAXgene) exposed in vitro to CYC202", "format": "cell-based, human", "conditions": "whole blood of several donors exposed in vitro to 30 μM CYC202 for […]", "method": "In addition, RNA from whole blood samples was analysed by QPCR. Blood from volunteers was collected into Vacutainer Heparin CPT tubes. […] The blood was then transferred into PAXgene tubes (PreAnalytiX), inverted several times, and placed at −20° C. after an initial incubation of 2 hours at room temperature to allow lysis of the cells. When ready for analysis, blood was left to thaw at room temperature for approximately 2 hours, and then processed according to the manufacturer's instructions. The optional DNase digestion step was included. RNA samples were quantified and then used directly in QPCR assays.\nIn addition, where the expression levels of housekeeper genes have been measured in these samples, the data has been normalized using a derivative of this formula: 2^ΔCttarget/2^ΔCthousekeeper Results\nBlood from volunteers was collected into Vacutainer Heparin CPT tubes at Hawkhill Medical Centre, Dundee and treated as described above in Example 2. […]\nBlood that had been stored for various lengths of time and under various storage conditions was left to thaw at room temperature for approximately 2 hours, and then processed according to the manufacturer's instructions. […] RNA samples were quantified and then used directly in QPCR assays."}, "[6]": {"assay": "Pharmacokinetic analysis of breast cancer patient 02-2-01 (08)", "format": "in vivo, human", "conditions": "600 mg b.i.d. oral, Day 1", "method": "Effects on PNUTS and other target genes in vitro has been observed with concentrations of 7.5-15 μM for 1.5-3 hours, which is within the range represented here."}, "[7]": {"biological_target": "CDK 9 (Homo sapiens, UniProt P50750)", "sequence (P50750 whole entry, species assumed)": "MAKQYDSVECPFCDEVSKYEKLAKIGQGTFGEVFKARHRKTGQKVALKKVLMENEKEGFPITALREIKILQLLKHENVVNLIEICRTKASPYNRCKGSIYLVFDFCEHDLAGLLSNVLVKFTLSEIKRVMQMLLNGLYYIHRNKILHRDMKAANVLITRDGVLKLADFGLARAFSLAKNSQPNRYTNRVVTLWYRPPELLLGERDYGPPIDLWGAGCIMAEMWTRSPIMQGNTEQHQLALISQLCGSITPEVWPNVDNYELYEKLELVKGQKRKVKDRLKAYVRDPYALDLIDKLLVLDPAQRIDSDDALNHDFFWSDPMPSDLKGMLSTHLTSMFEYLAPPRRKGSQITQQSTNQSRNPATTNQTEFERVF", "sequence (O60563 whole entry partner, species assumed)": "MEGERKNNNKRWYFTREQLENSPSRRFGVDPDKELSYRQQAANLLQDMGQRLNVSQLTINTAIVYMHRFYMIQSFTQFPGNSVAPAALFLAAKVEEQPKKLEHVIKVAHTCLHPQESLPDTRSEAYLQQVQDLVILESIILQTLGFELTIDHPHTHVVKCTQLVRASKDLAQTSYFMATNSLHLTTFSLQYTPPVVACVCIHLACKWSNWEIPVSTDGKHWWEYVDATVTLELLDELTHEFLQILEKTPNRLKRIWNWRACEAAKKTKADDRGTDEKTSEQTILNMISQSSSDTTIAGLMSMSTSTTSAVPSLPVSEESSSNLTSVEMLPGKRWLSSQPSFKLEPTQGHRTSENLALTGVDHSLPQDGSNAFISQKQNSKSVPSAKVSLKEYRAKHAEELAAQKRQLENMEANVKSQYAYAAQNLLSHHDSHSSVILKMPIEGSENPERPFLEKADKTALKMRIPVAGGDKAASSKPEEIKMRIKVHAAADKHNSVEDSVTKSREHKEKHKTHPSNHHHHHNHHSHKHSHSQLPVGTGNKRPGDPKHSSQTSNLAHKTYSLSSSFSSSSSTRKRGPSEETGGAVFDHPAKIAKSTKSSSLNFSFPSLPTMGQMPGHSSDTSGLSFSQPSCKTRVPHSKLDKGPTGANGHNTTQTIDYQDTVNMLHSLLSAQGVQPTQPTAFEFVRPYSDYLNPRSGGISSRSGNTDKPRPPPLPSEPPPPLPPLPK", "conditions": "cited from earlier work"}, "[8]": {"tested_on": "Apolipoprotein A1", "assay": "SELDI-TOF-MS plasma proteomic profile, 28 kDa biomarker cluster", "format": "in vivo, human", "conditions": "plasma fraction 4, SAX chip pH9, 16 Phase 1b patients", "method": "as §1, §2"}}, "data": [{"smiles": "CC[C@H](CO)Nc1nc(NCc2ccccc2)c2ncn(C(C)C)c2n1", "note": "[CYC202, 2-(R)-(1-ethyl-2-hydroxyethylamino)-6-benzylamino-9-isopropylpurine]", "values": [{"measurement": "normalised intensity M/Z 6984, after treatment group", "setting": "[1]; neat plasma, CM10 chip, other group 3.1+/−1.2, p=0.0000014", "result": "42.2+/−11.8"}, {"measurement": "normalised intensity M/Z 6787, after treatment group", "setting": "[1]; neat plasma, CM10 chip, other group 5.6+/−1.9, p=0.0000014", "result": "27.5+/−10.4"}, {"measurement": "normalised intensity M/Z 6998, after treatment group", "setting": "[1]; plasma fraction 6, H50 chip, other group 2.1+/−0.7, p=0.0000031", "result": "42.0+/−9.1"}, {"measurement": "normalised intensity M/Z 6799, after treatment group", "setting": "[1]; plasma fraction 6, H50 chip, other group 2.9+/−1.2, p=0.0000031", "result": "29.1+/−8.1"}, {"measurement": "gene expression (microarray, genes of FIG. 9/11)", "setting": "[2]; 2 hr", "result": "significantly down regulated"}, {"measurement": "gene expression (microarray, genes of FIG. 10/12)", "setting": "[2]; 4 hr", "result": "significantly down regulated"}, {"measurement": "inhibition of CDK 7", "setting": "[3]", "result": "inhibit"}, {"measurement": "effect on cell cycle progression", "setting": "[4]", "result": "block cell cycle progression in late G1/early S and in M-phase"}, {"measurement": "expression of PNUTS normalised to housekeeper (HPRT)", "setting": "[5]", "result": "reproducibly down-regulated"}, {"measurement": "plasma levels of CYC202", "setting": "[6]", "result": "maintained efficacious levels of CYC202 over several hours"}, {"measurement": "inhibition of CDK 9", "setting": "[7]", "result": "inhibit"}, {"measurement": "normalised intensity M/Z 28126, after treatment group", "setting": "[8]; last day of treatment, before treatment 32.0+/−9.6, p=0.0058", "result": "20.4+/−9.9"}, {"measurement": "normalised intensity M/Z 27923, after treatment group", "setting": "[8]; last day of treatment, before treatment 50.6+/−11.8, p=0.00097", "result": "31.8+/−13.7"}, {"measurement": "change of marker M/Z 28799 after vs before treatment", "setting": "[8]; p=0.19", "result": "not deemed to be statistically significant"}, {"measurement": "change of marker M/Z 28292 after vs before treatment", "setting": "[8]; p=0.95", "result": "not deemed to be statistically significant"}]}]}
